Read-outs that look alike come from different tables or passages of the source.
Test system: Established Adjuvant-Induced Arthritis in Rats
Experiment: Established Adjuvant-Induced Arthritis in Rats (uninjected left hind paw volume)
Format: in vivo, Lewis (Wistar) male rats
Conditions: for inhibition in vivo at 27 mg/kg: Daily Oral Dose 27 mg/kg; for ED50: 168 h, read-out: ED50 % Decrease From Control Paw Volume; for inhibition in vivo at 20 mg/kg: Daily Oral Dose 20 mg/kg
[1] = Rattus norvegicus, 504 h, once daily for 7 days (days 14-20), paw volume on day 21, read-out: Percent Decrease from Control Paw Volume
[2] = Rattus norvegicus, oral gavage once daily for 7 days (days 14-20), estimated by inspection of dose-response regression lines

Row | Compound | inhibition in vivo at 27 mg/kg [1] [%] | ED50 [2] [mg/kg] | other results
1 | CCCCCCSc1cc(-c2ccc(OC)cc2)c(-c2ccc(OC)cc2)s1 [Example 20] |  |  | inhibition in vivo at 81 mg/kg (Rattus norvegicus, 504 h, Daily Oral Dose 81 mg/kg, once daily for 7 days (days 14-20), paw volume on day 21, read-out: Percent Decrease from Control Paw Volume): 39%
2 | O=S(=O)(c1cc(-c2ccc(F)cc2)c(-c2ccc(F)cc2)s1)C(F)(F)C(F)F [Example 12] | 34 |  | 
3 | COc1ccc(-c2cc(SC(F)(F)F)sc2-c2ccc(S(C)(=O)=O)cc2)cc1 [Example 21] |  | 9 | 
4 | COc1ccc(-c2cc(S(=O)(=O)C(F)(F)C(F)F)sc2-c2ccc(OC)cc2)cc1 [Example 11] | 23 |  | 
5 | CC(=O)Oc1ccccc1C(=O)O [Aspirin, reference compound] |  |  | ED50 (Rattus norvegicus, po): 270 mg/kg
6 | CSc1ccc(-c2cc(SC(F)(F)F)sc2-c2ccc(F)cc2)cc1 [Example 24] |  | 0.15 | 
7 | Fc1ccc(-c2cc(SC(F)(F)C(F)F)sc2-c2ccc(F)cc2)cc1 [Example 10] | 28 |  | 
8 | COc1ccc2c(c1)c(CC(=O)O)c(C)n2C(=O)c1ccc(Cl)cc1 [Indomethacin, reference compound] |  |  | ED50 (Rattus norvegicus, po): 0.25 mg/kg
9 | FC(F)(F)Sc1cc(-c2ccccc2)c(-c2ccccc2)s1 [Example 5] |  |  | inhibition in vivo at 20 mg/kg [1]: 33%
10 | CCCCC1C(=O)N(c2ccccc2)N(c2ccccc2)C1=O [Phenylbutazone, reference compound] |  | 10 | 
11 | CSc1cc(-c2ccc(F)cc2)c(-c2ccc(F)cc2)s1 [Example 8] | 25 |  | 
12 | Fc1ccc(-c2cc(SC(F)(F)F)sc2-c2ccc(F)cc2)cc1 [Example 1, 2,3-bis(4-Fluorophenyl)-5-(trifluoromethylthio)thiophene] |  | 3.5 | 
13 | CSc1ccc(-c2sc(SC(F)(F)F)cc2-c2ccc(F)cc2)cc1 [Example 22] |  | 0.4 | 
14 | COc1ccc(-c2cc(SC(F)(F)F)sc2-c2ccc(OC)cc2)cc1 [Example 6] |  |  | inhibition in vivo at 20 mg/kg [1]: 32%
15 | Fc1ccc(-c2cc(SC(F)(F)F)sc2-c2ccc(Cl)cc2)cc1 [Example 9] |  | 10 | 
16 | Fc1ccc(-c2sc(SC(F)(F)F)cc2-c2ccc(Cl)cc2)cc1 [Example 7] |  | 4 | 
17 | COc1ccc(-c2cc(SC(F)(F)C(F)F)sc2-c2ccc(OC)cc2)cc1 [Example 4, 2,3-bis(4-Methoxyphenyl)-5-(1,1,2,2-tetrafluoroethylthio)thiophene] | 11 |  | antiinflammatory activity (statistical significance) (at the dose level tested): did not exhibit statistically significant antiinflammatory activity
18 | O=S(=O)(c1cc(-c2ccc(F)cc2)c(-c2ccc(F)cc2)s1)C(F)(F)F [Example 2, 2,3-bis(4-Fluorophenyl)-5-(trifluoromethylsulfonyl)thiophene] |  | 10 | 
19 | COc1ccc(-c2cc(SC)sc2-c2ccc(OC)cc2)cc1 [Example 3, 2,3-bis(4-Methoxyphenyl)-5-(methylthio)thiophene] | 43 |  | 
